Experimental data as given in article PMC6445240, “Design, synthesis and evaluation of ^18F-labeled cationic carbonic anhydrase IX inhibitors for PET imaging” (Journal of Enzyme Inhibition and Medicinal Chemistry, 2017).
Where a name gives a salt, the structure may show the parent alone.

Experiments:
CA-II = CA-II (Homo sapiens, UniProt P00918); experiment: stopped-flow CO2 hydration assay, CA-II; type: biochemical; details: errors 5–10% from three assays, read-out: Inhibition constant (Ki) CA-II
CA-IV = CA-IV (Homo sapiens, UniProt P22748); experiment: stopped-flow CO2 hydration assay, CA-IV; type: biochemical; details: errors 5–10% from three assays, read-out: Inhibition constant (Ki) CA-IV
CA-I = CA-I (Homo sapiens, UniProt P00915); experiment: stopped-flow CO2 hydration assay, CA-I; type: biochemical; details: errors 5–10% from three assays, read-out: Inhibition constant (Ki) CA-I
CA-IX = CA-IX (Homo sapiens, UniProt Q16790); experiment: stopped-flow CO2 hydration assay, CA-IX; type: biochemical; details: errors 5–10% from three assays, read-out: Inhibition constant (Ki) CA-IX

CA-IV, sequence (P22748 19-312): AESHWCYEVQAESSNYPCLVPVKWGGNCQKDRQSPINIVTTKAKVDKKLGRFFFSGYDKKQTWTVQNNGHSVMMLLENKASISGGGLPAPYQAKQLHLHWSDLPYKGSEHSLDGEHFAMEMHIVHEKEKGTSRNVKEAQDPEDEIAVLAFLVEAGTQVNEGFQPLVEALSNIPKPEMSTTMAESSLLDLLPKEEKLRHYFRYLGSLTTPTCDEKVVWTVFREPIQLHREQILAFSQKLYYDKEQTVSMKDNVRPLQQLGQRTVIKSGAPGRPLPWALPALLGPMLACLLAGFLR
CA-I, sequence (P00915 whole entry): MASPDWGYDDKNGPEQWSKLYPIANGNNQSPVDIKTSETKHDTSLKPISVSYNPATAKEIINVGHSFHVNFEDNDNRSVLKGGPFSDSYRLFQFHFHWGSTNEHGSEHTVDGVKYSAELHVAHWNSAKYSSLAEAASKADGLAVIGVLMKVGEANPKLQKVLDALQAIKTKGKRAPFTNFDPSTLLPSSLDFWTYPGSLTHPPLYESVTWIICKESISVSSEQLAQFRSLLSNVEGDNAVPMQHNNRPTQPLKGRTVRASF

SMILES	melting point [°C]	Ki (CA-II) [nM]	Ki (CA-IV) [nM]	Ki (CA-I) [nM]	Ki (CA-IX) [nM]
C[N+](C)(Cc1ccc(F)cc1)Cc1ccc(C(=O)NCc2cccc(S(N)(=O)=O)c2)cc1 (as salt: bromide) [Compound 1, N-4-[[[3-(aminosulfonyl)benzyl]amino]carbonyl] benzyl-N,N-dimethyl-4-fluorobenzylammonium bromide]	226				
C[N+](C)(Cc1ccc(F)cc1)Cc1ccc(C(=O)NCc2ccc(S(N)(=O)=O)cc2)cc1 (as salt: bromide) [Compound 3, N-4-[[[4-(aminosulfonyl)benzyl]amino]carbonyl] benzyl-N,N-dimethyl-4-fluorobenzylammonium bromide]	228				
C[N+](C)(Cc1ccc(F)cc1)Cc1ccc(C(=O)NCc2cccc(S(N)(=O)=O)c2)cc1 [Compound 1, N-4-[[[3-(aminosulfonyl)benzyl]amino]carbonyl] benzyl-N,N-dimethyl-4-fluorobenzylammonium bromide]		720	> 50000	890	440
C[N+](C)(Cc1ccc(F)cc1)Cc1ccc(C(=O)NCc2ccc(S(N)(=O)=O)cc2)cc1 [Compound 3, N-4-[[[4-(aminosulfonyl)benzyl]amino]carbonyl] benzyl-N,N-dimethyl-4-fluorobenzylammonium bromide]		480	3630	780	960

Second part, the compound after the results:

melting point [°C]	Ki (CA-II) [nM]	Ki (CA-IV) [nM]	Ki (CA-I) [nM]	Ki (CA-IX) [nM]	SMILES
215					C[N+](C)(Cc1ccc(F)cc1)Cc1ccc(C(=O)NCCc2ccc(S(N)(=O)=O)cc2)cc1 (as salt: bromide) [Compound 2, N-4-[[[2-[4-(aminosulfonyl)phenyl]ethyl]amino]carbonyl]benzyl-N,N-dimethyl-4-fluorobenzylammonium bromide]
	70	9540	520	220	C[N+](C)(Cc1ccc(F)cc1)Cc1ccc(C(=O)NCCc2ccc(S(N)(=O)=O)cc2)cc1 [Compound 2, N-4-[[[2-[4-(aminosulfonyl)phenyl]ethyl]amino]carbonyl]benzyl-N,N-dimethyl-4-fluorobenzylammonium bromide]
